Source: US6472348B1, “Pyridone derivatives and herbicides” (Kumiai Chemical Industry Co., Ltd., priority 1996, dated 2002)

Assays:
Assay type in all cases: in vivo
barnyardgrass (Ec) [1] = experiment: Test Example 1: herbicidal effects by paddy field soil treatment; conditions: 100 g of the active ingredient per 10 ares, 21st day after the application, index 0-5 of Table 47;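 also: grade of growth control; 5 = at least 90%; 4 = 70 to 90%; 3 = 50 to 70%; 2 = 30 to 50%; 1 = 10 to 30%; 0 = under 10%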
How it was run: (§1)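 Greenhouse pot test in flooded paddy soil, dosed at 100 g a.i. per 10 ares; effect scored on day 21.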

bulrush (Sc) = experiment: as above; conditions: 100 g of the active ingredient per 10 ares, 21st day after the application, index 0-5 of Table 47;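 also: grade of growth control; 5 = at least 90%; 4 = 70 to 90%; 3 = 50 to 70%; 2 = 30 to 50%; 1 = 10 to 30%; 0 = under 10%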
How it was run: as §1

monochoria (Mo) = experiment: as above; conditions: 100 g of the active ingredient per 10 ares, 21st day after the application, index 0-5 of Table 47;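 also: grade of growth control; 5 = at least 90%; 4 = 70 to 90%; 3 = 50 to 70%; 2 = 30 to 50%; 1 = 10 to 30%; 0 = under 10%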
How it was run: as §1

Digitaria ciliaris (Di) = experiment: Test Example 2: herbicidal effects by upland field soil treatment; conditions: 100 g of the active ingredient per 10 ares;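 also: grade of growth control; 5 = at least 90%; 4 = 70 to 90%; 3 = 50 to 70%; 2 = 30 to 50%; 1 = 10 to 30%; 0 = under 10%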
Source text: (§2) (Test on Herbicidal Effects by Upland Field Soil Treatment)

barnyardgrass (Ec) [2] = experiment: as above; conditions: 100 g of the active ingredient per 10 ares
Source text: as §2

[3] = system: common lambsquarters (Ch); experiment: as above; conditions: 100 g of the active ingredient per 10 ares
Source text: as §2

pale smartweed (Po) [4] = experiment: as above; conditions: 100 g of the active ingredient per 10 ares
Source text: as §2

rice flatsedge (Ci) [5] = experiment: as above; conditions: 100 g of the active ingredient per 10 ares
Source text: as §2

slender amaranth (Am) [6] = experiment: as above; conditions: 100 g of the active ingredient per 10 ares
Source text: as §2

Diaitaria ciliaris (Di) = experiment: Test Example 3: herbicidal effects by upland field foliage treatment; design: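 grade of growth control; 5 = at least 90%; 4 = 70 to 90%; 3 = 50 to 70%; 2 = 30 to 50%; 1 = 10 to 30%; 0 = under 10%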; conditions: 100 g of the active ingredient per 10 ares, evaluated on the 14th day after treatment
How it was run: (§3)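 Two-week-old greenhouse seedlings, raised in sand-filled pots (120 cm^2) with seed covered by soil, receive a foliar application. Effects are then evaluated by standard grades 14 days later, plants remaining in the greenhouse meanwhile.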

barnyardgrass (Ec) [7] = experiment: as above; design: scale not given here; conditions: 100 g of the active ingredient per 10 ares, evaluated on the 14th day after treatment
How it was run: as §3

[8] = system: common lambsquarters (Ch); experiment: as above; design: scale not given here; conditions: 100 g of the active ingredient per 10 ares, evaluated on the 14th day after treatment
How it was run: as §3

pale smartweed (Po) [9] = experiment: as above; design: scale not given here; conditions: 100 g of the active ingredient per 10 ares, evaluated on the 14th day after treatment
How it was run: as §3

rice flatsedge (Ci) [10] = experiment: as above; design: scale not given here; conditions: 100 g of the active ingredient per 10 ares, evaluated on the 14th day after treatment
How it was run: as §3

slender amaranth (Am) [11] = experiment: as above; design: scale not given here; conditions: 100 g of the active ingredient per 10 ares, evaluated on the 14th day after treatment
How it was run: as §3

cotton (Go) = experiment: Test Example 4: crop plant selectivity by upland field soil treatment (cotton), phytotoxicity; design: scale not given here; conditions: dose 6.3 g ai/10 a, evaluated 21st day after application
Protocol: (§4) (Test on Crop Plant Selectivity by Upland Field Soil Treatment)
(§5) In a plastic pot (surface area: 600 cm^2) filled with sand, cotton (Go), Diaitaria ciliaris (Di), green foxtail (Se), pale smartweed (Po), slender amaranth (Am), common lambsquarters (Ch) and China jute (Ab) were sown and covered with soil. […] The plants were then cultured in a green house, and the evaluation of the herbicidal effects and phytotoxicity was conducted on the 21st day after the application in accordance with the standards as identified in Table 47. Symbol—represents “not tested”.

China jute (Ab) [12] = experiment: Test Example 4: crop plant selectivity by upland field soil treatment (cotton), herbicidal effects; design: scale not given here; conditions: dose 6.3 g ai/10 a, evaluated 21st day after application
Protocol: as §4, §5

[13] = system: common lambsquarters (Ch); experiment: as above; design: scale not given here; conditions: dose 6.3 g ai/10 a, evaluated 21st day after application
Protocol: as §4, §5

green foxtail (Se) [14] = experiment: as above; design: scale not given here; conditions: dose 6.3 g ai/10 a, evaluated 21st day after application
Protocol: as §4, §5

pale smartweed (Po) [15] = experiment: as above; design: scale not given here; conditions: dose 6.3 g ai/10 a, evaluated 21st day after application
Protocol: as §4, §5

slender amaranth (Am) [16] = experiment: as above; design: scale not given here; conditions: dose 6.3 g ai/10 a, evaluated 21st day after application
Protocol: as §4, §5

wheat (Tr) = experiment: Test Example 5: crop plant selectivity by upland field soil treatment (wheat), phytotoxicity; design: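 grade of crop injury; 5 = at least 90%; 4 = 70 to 90%; 3 = 50 to 70%; 2 = 30 to 50%; 1 = 10 to 30%; 0 = under 10%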; conditions: dose 1.6 g ai/10a, 21st day after application
Protocol: as §4
(§6) In a plastic pot (surface area: 600 cm^2) filled with sand, wheat (Tr), Diaitaria ciliaris (Di), green foxtail (Se), pale smartweed (Po), slender amaranth (Am), common lambsquarters (Ch) and China jute (Ab) were sown and covered with soil. […] The plants were then cultured in a green house, and the evaluation of the herbicidal effects and phytotoxicity was conducted on the 21st day after the application in accordance with the standards as identified in Table 47. Symbol—represents “not tested”.

[17] = system: common lambsquarters (Ch); experiment: Test Example 5: crop plant selectivity by upland field soil treatment (wheat), herbicidal effects; design: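 grade of growth control; 5 = at least 90%; 4 = 70 to 90%; 3 = 50 to 70%; 2 = 30 to 50%; 1 = 10 to 30%; 0 = under 10%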; conditions: dose 1.6 g ai/10a, 21st day after application
Protocol: as §4, §6

green foxtail (Se) [18] = experiment: as above; design: scale not given here; conditions: dose 1.6 g ai/10a, 21st day after application
Protocol: as §4, §6

pale smartweed (Po) [19] = experiment: as above; design: scale not given here; conditions: dose 1.6 g ai/10a, 21st day after application
Protocol: as §4, §6

slender amaranth (Am) [20] = experiment: as above; design: scale not given here; conditions: dose 1.6 g ai/10a, 21st day after application
Protocol: as §4, §6

soybean (Gl) = experiment: Test Example 6: crop plant selectivity by upland field soil treatment (soybean), phytotoxicity; design: scale not given here; conditions: dose 6.3 g ai/10a, 21st day after application
Protocol: as §4
(§7) In a plastic pot (surface area: 600 cm^2) filled with sand, soybean (Gl), Diaitaria ciliaris (Di), green foxtail (Se), Johnsongrass (So), pale smartweed (Po), slender amaranth (Am), common lambsquarters (Ch) and China jute (Ab) were sown and covered with soil. […] The plants were then cultured in a green house, and the evaluation of the herbicidal effects and phytotoxicity was conducted on the 21st day after the application in accordance with the standards as identified in Table 47. Symbol—represents “not tested”.

China jute (Ab) [21] = experiment: Test Example 6: crop plant selectivity by upland field soil treatment (soybean), herbicidal effects; design: scale not given here; conditions: dose 6.3 g ai/10a, 21st day after application
Protocol: as §4, §7

[22] = system: common lambsquarters (Ch); experiment: as above; design: scale not given here; conditions: dose 6.3 g ai/10a, 21st day after application
Protocol: as §4, §7

green foxtail (Se) [23] = experiment: as above; design: scale not given here; conditions: dose 6.3 g ai/10a, 21st day after application
Protocol: as §4, §7

pale smartweed (Po) [24] = experiment: as above; design: scale not given here; conditions: dose 6.3 g ai/10a, 21st day after application
Protocol: as §4, §7

slender amaranth (Am) [25] = experiment: as above; design: scale not given here; conditions: dose 6.3 g ai/10a, 21st day after application
Protocol: as §4, §7

corn (Ze) = experiment: Test Example 7: crop plant selectivity by upland field soil treatment (corn), phytotoxicity; design: scale not given here; conditions: dose 6.3 g ai/10a, 21st day after application
Protocol: as §4
(§8) In a plastic pot (surface area: 600 cm^2) filled with sand, corn (Ze), green foxtail (Se), pale smartweed (Po), slender amaranth (Am), common lambsquarters (Ch) and China jute (Ab) were sown and covered with soil. […] The plants were then cultured in a green house, and the evaluation of the herbicidal effects and phytotoxicity was conducted on the 21st day after the application in accordance with the standards as identified in Table 47.

China jute (Ab) [26] = experiment: Test Example 7: crop plant selectivity by upland field soil treatment (corn), herbicidal effects; design: scale not given here; conditions: dose 6.3 g ai/10a, 21st day after application
Protocol: as §4, §8

[27] = system: common lambsquarters (Ch); experiment: as above; design: scale not given here; conditions: dose 6.3 g ai/10a, 21st day after application
Protocol: as §4, §8

green foxtail (Se) [28] = experiment: as above; design: scale not given here; conditions: dose 6.3 g ai/10a, 21st day after application
Protocol: as §4, §8

pale smartweed (Po) [29] = experiment: as above; design: scale not given here; conditions: dose 6.3 g ai/10a, 21st day after application
Protocol: as §4, §8

slender amaranth (Am) [30] = experiment: as above; design: scale not given here; conditions: dose 6.3 g ai/10a, 21st day after application
Protocol: as §4, §8

[31] = 21st day after the application, index 0-5 of Table 47
[32] = evaluated on the 21st day after application

| SMILES | Herbicidal effects Ec (barnyardgrass (Ec) [1]) | Herbicidal effects Sc (bulrush (Sc)) | Herbicidal effects Mo (monochoria (Mo)) | Herbicidal effects Di (Diaitaria ciliaris (Di)) | Herbicidal effects Ec (barnyardgrass (Ec) [7]) | Herbicidal effects Ch [8] | Herbicidal effects Po (pale smartweed (Po) [9]) | Herbicidal effects Ci (rice flatsedge (Ci) [10]) | Herbicidal effects Am (slender amaranth (Am) [11]) | Phytotoxicity Go (cotton (Go)) | Herbicidal effects Ab (China jute (Ab) [12]) | Herbicidal effects Ch [13] | Herbicidal effects Se (green foxtail (Se) [14]) | Herbicidal effects Po (pale smartweed (Po) [15]) | Herbicidal effects Am (slender amaranth (Am) [16]) | Phytotoxicity Ze (corn (Ze)) | Herbicidal effects Ab (China jute (Ab) [26]) | Herbicidal effects Ch [27] | Herbicidal effects Se (green foxtail (Se) [28]) | Herbicidal effects Po (pale smartweed (Po) [29]) | further results |
| --- | --- | --- | --- | --- | --- | --- | --- | --- | --- | --- | --- | --- | --- | --- | --- | --- | --- | --- | --- | --- | --- |
| CCCOc1cc(-c2ccc(C(F)(F)F)n(C)c2=O)c(F)cc1Cl [1-154] | 5 | 5 | 5 | 5 | 5 | 5 | 5 | 5 | 5 | 0 | 5 | 5 | 5 | 5 | 5 | 1 | 5 | 5 | 5 | 5 | Herbicidal effects Di (Digitaria ciliaris (Di); [31]): 5; Herbicidal effects Ec (barnyardgrass (Ec) [2]; [31]): 5; Herbicidal effects Ch [3, 31]: 5; Herbicidal effects Po (pale smartweed (Po) [4]; [31]): 5; Herbicidal effects Ci (rice flatsedge (Ci) [5]; [31]): 5; Herbicidal effects Am (slender amaranth (Am) [6]; [31]): 5; Phytotoxicity Tr (wheat (Tr)): 1; Herbicidal effects Ch [17]: 5; Herbicidal effects Se (green foxtail (Se) [18]): 5; Herbicidal effects Po (pale smartweed (Po) [19]): 5; Herbicidal effects Am (slender amaranth (Am) [20]): 5; Phytotoxicity Gl (soybean (Gl)): 1; Herbicidal effects Ab (China jute (Ab) [21]): 5; Herbicidal effects Ch [22]: 5; Herbicidal effects Se (green foxtail (Se) [23]): 5; Herbicidal effects Po (pale smartweed (Po) [24]): 5; Herbicidal effects Am (slender amaranth (Am) [25]): 5; Herbicidal effects Am (slender amaranth (Am) [30]): 5 |
| Cn1c(C(F)(F)F)ccc(-c2cc(OCCF)c(Cl)cc2F)c1=O [1-172] | 5 | 5 | 5 | 5 | 5 | 5 | 5 | 5 | 5 | 1 | 5 | 5 | 5 | 5 | 5 | 2 | 5 | 5 | 5 | 5 | Herbicidal effects Di (Digitaria ciliaris (Di); [32]): 5; Herbicidal effects Ec (barnyardgrass (Ec) [2]; [32]): 5; Herbicidal effects Ch [3, 32]: 5; Herbicidal effects Po (pale smartweed (Po) [4]; [32]): 5; Herbicidal effects Ci (rice flatsedge (Ci) [5]; [32]): 5; Herbicidal effects Am (slender amaranth (Am) [6]; [32]): 5; Herbicidal effects Am (slender amaranth (Am) [30]): 5 |
